{"source": "paper PMC11574021", "about": "“CEP192 localises mitotic Aurora-A activity by priming its interaction with TPX2” (The EMBO Journal, 2024)", "key": {"[1]": {"system": "PLK1-pT210 in RPE1 p53-/- cells", "assay": "Western blot densitometry, PLK1-pT210, RPE1 p53-/-", "assay_type": "cell-based, Homo sapiens", "settings": "mitotic RPE1 p53-/- lysates, inhibitor 30 min", "protocol": "For measuring monopolar spindle diameter and counting centriolar foci by immunofluorescence, cells were treated with 10 µM STLC for 1 h and 4 h prior to fixation, respectively.\nDrugs were resuspended in DMSO to the stock concentrations indicated in square brackets.\nCells were lysed on ice for 30 min in lysis buffer (50 mM tris pH 8.0, 300 mM NaCl, 0.2%(v/v) NP-40, 10%(v/v) glycerol, protease inhibitor cocktail C, phosphatase inhibitor cocktail 3 (Sigma, 1:200 dilution), 100 nM okadaic acid (Enzo, ALX-350-003-C100)). Lysates were then centrifuged at 14,000 × g, 15 min, 4 °C, the supernatants were transferred to a fresh tube, and the pellet was discarded. Protein concentrations were measured by Bradford assay using Protein Assay Dye Reagent Concentrate (Bio-Rad Laboratories, 5000006). NuPage LDS sample buffer, supplemented with NuPAGE sample reducing agent (Invitrogen) were added prior to boiling for 10 min at 90 °C. […] Nitrocellulose was then blocked in 5% milk (wt/v) in TBS, 0.1% Tween (v/v) (TBST) for 1 h. Primary and secondary antibodies were diluted in 5% milk, TBST and incubated overnight at 4 °C or for 1 h at room temperature, respectively. […]\nDensitometric quantification of western blots was also performed in ImageJ. Intensity was measured in a rectangular region of interest (ROI) around each band. […] An adjacent region was also measured to account for background intensity."}, "[2]": {"target": "T1, phosphorylated Aurora-A CAKD (Homo sapiens, UniProt O14965, C290A/C393A)", "T1 construct": "10 nM Aurora-A 122–403 C290A C393A phosphorylated protein; His (N, cleaved yes); made in house; host or cells: E. coli B834 (no lambda phosphatase)", "T1 sequence (O14965 122-403 C290A/C393A)": "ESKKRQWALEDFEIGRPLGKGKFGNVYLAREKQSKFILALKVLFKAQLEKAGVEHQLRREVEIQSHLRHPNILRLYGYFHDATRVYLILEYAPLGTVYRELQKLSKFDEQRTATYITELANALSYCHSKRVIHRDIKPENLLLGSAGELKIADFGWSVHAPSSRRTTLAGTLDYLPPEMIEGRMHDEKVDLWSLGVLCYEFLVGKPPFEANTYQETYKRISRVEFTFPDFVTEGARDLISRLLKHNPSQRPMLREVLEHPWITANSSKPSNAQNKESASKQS", "assay": "ADP-Glo kinase assay, kemptide substrate", "assay_type": "biochemical", "settings": "ADP-Glo, phosphorylated Aurora-A CAKD, kemptide; in words", "summary_of_the_method": "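Reactions started with 10 μM ATP and 100 μM kemptide, 60 min at room temperature, then ADP-Glo luminescence read-out. Control-subtracted signals from three repeats averaged and fitted to sigmoidal curves for IC50 and EC50.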"}}}
{"molecule": "COc1cc(Nc2ncc3c(n2)-c2ccc(Cl)cc2C(c2c(F)cccc2OC)=NC3)ccc1C(=O)O", "note": "[Alisertib]", "values": [{"measurement": "T-loop phosphorylation of PLK1 (pT210)", "setting": "[1]", "value": "decreased"}, {"measurement": "effect on Aurora-A kinase activity", "setting": "[2]", "value": "fully inhibited activity"}]}
